Measured values as given in patent US6974839B2, “Method of delaying ejaculation” (DMI BioSciences, Inc., priority 2001, dated 2005).
Counter-ions that a name gives are not always drawn.

Assays:
normal subject = assay: Delay of ejaculation after an oral dose taken 30–60 minutes prior to sexual intercourse; assay type: in vivo, human
Source text: […]. […] […]

μ-opioid receptors = settings: cited from earlier work
animal models = settings: cited from earlier work

Structure (SMILES): COc1cccc([C@]2(O)CCCC[C@H]2CN(C)C)c1 (racemic) [tramadol hydrochloride, (±)cis-2-[(dimethylamino)methyl]-1-(3-methoxyphenyl)-cyclohexanol hydrochloride]
- delay of ejaculation (normal subject; 25 mg orally, 30–60 minutes prior to sexual intercourse, normal subject): 10 to 15 min
- ejaculation/orgasm achieved (normal subject; 100 mg): sometimes ejaculation/orgasm was not achieved
- side effects associated with the dose (normal subject; doses of 50–100 mg): drowsiness, lightheadedness, dry mouth and a sense of slight euphoria (opioid effect)

Structure (SMILES): COc1cccc(C2(O)CCCCC2CN(C)C)c1 (stereo not shown) [tramadol, 2-[(dimethylamino)methyl]-1-(3-methoxyphenyl)-cyclohexanol]
- affinity of binding to μ-opioid receptors (μ-opioid receptors): low affinity binding

Structure (SMILES): CN(C)C[C@H]1CCCC[C@]1(O)c1cccc(O)c1 [M1]
- affinity of binding to μ-opioid receptors (μ-opioid receptors): higher affinity binding
- potency in μ-opioid binding relative to tramadol (μ-opioid receptors): 200 times
- potency in producing analgesia relative to tramadol (animal models): up to 6 times
